SMILES strings stand for the structures.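 Test compounds were applied to cells in 96-well plates for 48 hours at 5 doses. GI50: concentration for 50% inhibition of growth. At the TGI there is no net growth.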 A value given as a limit tells only on which side of the number the result lay.

GI50 and TGI data for 8 compounds are collected here from PubChem BioAssay (NCI).

Among the test systems are 786-0 renal; A498 renal; A549 NSCLC; BT-549 breast; K-562 leukemia; M14 melanoma; MDA-MB-231 breast; MDA-MB-435; U251 CNS; UACC-62 melanoma.
What all share (test): NCI anticancer screen, dose series, 48 h

Regarding `C=C1C(=O)O[C@H]2[C@H]1CC/C(COC(=O)C(=O)c1cn(C)c3ccc(Cl)cc13)=C\CC[C@@]1(C)O[C@@H]21`, the GI50 in the experiment on 786-0 renal is 1.2 µM; in the experiment with A498 renal it was 2.17 µM; in the experiment with A549 NSCLC it was 2.2 µM; in the experiment on BT-549 breast, 0.234 µM; in the experiment with K-562 leukemia, 1.65 µM; in the experiment on M14 melanoma, 1.11 µM. Also, the GI50 is 1.03 µM in the experiment with MDA-MB-231 breast, 1.27 µM with MDA-MB-435, 1.79 µM with U251 CNS and 0.356 µM in the experiment on UACC-62 melanoma. Further, the TGI in the experiment with 786-0 renal was 2.53 µM; with A498 renal, 3.86 µM; in the experiment with A549 NSCLC, 4.82 µM; in the experiment on BT-549 breast, 0.618 µM; in the experiment with K-562 leukemia, more than 100 µM; in the experiment on M14 melanoma, 2.74 µM. Besides, the TGI is 4.3 µM in the experiment with MDA-MB-231 breast, 3.13 µM with MDA-MB-435, 3.38 µM in the experiment with U251 CNS and 2.08 µM with UACC-62 melanoma.

`COc1ccc(-c2cc(-c3ccc(Cl)cc3)nc(SCCCC(=O)NO)n2)cc1`: the GI50 in the experiment on 786-0 renal is 0.594 µM; in the experiment with A498 renal it was 1.38 µM; in the experiment with A549 NSCLC, 1.57 µM; in the experiment with BT-549 breast, 2.46 µM; in the experiment on K-562 leukemia it was 1.2 µM; in the experiment with M14 melanoma, 0.786 µM. Moreover, the GI50 was 1.22 µM in the experiment with MDA-MB-231 breast, 1.21 µM in the experiment with MDA-MB-435, 0.753 µM in the experiment with U251 CNS and 0.853 µM in the experiment with UACC-62 melanoma. Further, the TGI was 4.52 µM with 786-0 renal; 3.28 µM in the experiment on A498 renal; 7.95 µM with A549 NSCLC; 28.6 µM in the experiment with BT-549 breast; more than 100 µM in the experiment on K-562 leukemia; 3.12 µM in the experiment on M14 melanoma. In addition, the TGI in the experiment with MDA-MB-231 breast was 5.3 µM; in the experiment on MDA-MB-435, 3.19 µM; with U251 CNS it was more than 22.5 µM; in the experiment on UACC-62 melanoma, 2.22 µM.

As to `C=C1C(C2(C)C(OC(C)=O)CC(=O)OC(C)(COC(C)=O)C2CC(=O)OC)C(OC=O)C(OC(=O)C(O)C(C)CC)C2(C)C(c3ccoc3)CC(=O)C12O` (stereo not given), the TGI with 786-0 renal is more than 100 µM; in the experiment with A498 renal it was more than 29.3 µM; in the experiment on A549 NSCLC it was more than 100 µM; in the experiment on BT-549 breast it was more than 30.5 µM; in the experiment on K-562 leukemia, more than 31.6 µM; in the experiment on M14 melanoma it was more than 100 µM. For the same compound, the TGI with MDA-MB-231 breast, in the experiment on MDA-MB-435, in the experiment on U251 CNS and with UACC-62 melanoma was more than 100 µM throughout.

On to `Cc1cc(O)cc2c1[C@]1(C)CCC3C(C)(C)CCC[C@]3(C)[C@H]1C2` (stereo not given in full), for which the GI50 with 786-0 renal is 19.4 µM; in the experiment with A498 renal, 23.2 µM; in the experiment with A549 NSCLC, 22.7 µM; in the experiment with BT-549 breast, 21.6 µM; in the experiment on K-562 leukemia it was 67.4 µM; in the experiment on M14 melanoma it was 21.6 µM. Also, the GI50 was 22 µM in the experiment on MDA-MB-231 breast, 18.8 µM in the experiment on MDA-MB-435, 19.2 µM in the experiment on U251 CNS and 18.6 µM in the experiment on UACC-62 melanoma. Also, the TGI in the experiment with 786-0 renal is 34.3 µM; in the experiment on A498 renal, 39.1 µM; in the experiment with A549 NSCLC it was 42.1 µM; in the experiment with BT-549 breast, 38.6 µM; with K-562 leukemia it was more than 100 µM; with M14 melanoma it was 37.6 µM. Also, the TGI in the experiment with MDA-MB-231 breast worked out at 38.5 µM; with MDA-MB-435 it was 33.4 µM; in the experiment on U251 CNS it was 33.5 µM; in the experiment with UACC-62 melanoma, 33.2 µM.

Regarding `CCN(Cc1ccccc1)c1ccc(CO)c(Cl)c1`, the GI50 with 786-0 renal is 12 µM; with A498 renal, 0.042 µM; in the experiment on A549 NSCLC, 2.18 µM; with BT-549 breast it was 14.1 µM; in the experiment with K-562 leukemia it was 2.69 µM; with M14 melanoma, 20.1 µM. The GI50 with MDA-MB-231 breast is 21.2 µM; in the experiment with MDA-MB-435 it was 21.4 µM; in the experiment on U251 CNS, 1 µM; in the experiment on UACC-62 melanoma it was 0.104 µM. The TGI in the experiment on 786-0 renal is 39.3 µM; in the experiment with A498 renal it was 0.169 µM; in the experiment with A549 NSCLC it was 25.4 µM; in the experiment with BT-549 breast, 44.6 µM; in the experiment with K-562 leukemia, more than 100 µM; with M14 melanoma, more than 65.1 µM. Also, the TGI was more than 100 µM with MDA-MB-231 breast, 77.8 µM in the experiment on MDA-MB-435, 50.1 µM with U251 CNS and 0.695 µM with UACC-62 melanoma.

In the case of `C/C(=N\Nc1cc(C)c2ccccc2n1)c1ccccn1`, the GI50 in the experiment with 786-0 renal was 0.135 µM; in the experiment on A498 renal it was 0.284 µM; in the experiment on A549 NSCLC it was 0.0714 µM; in the experiment with BT-549 breast it was 0.301 µM; in the experiment with K-562 leukemia, 0.0865 µM; in the experiment with M14 melanoma it was 0.066 µM. In addition, the GI50 is less than 0.0283 µM in the experiment with MDA-MB-231 breast, 0.21 µM in the experiment on MDA-MB-435, 0.0368 µM in the experiment on U251 CNS and 0.11 µM in the experiment on UACC-62 melanoma. Also, the TGI with 786-0 renal is 1.27 µM; in the experiment with A498 renal, 3.04 µM; in the experiment on A549 NSCLC, 1.17 µM; in the experiment with BT-549 breast it was 15.7 µM; in the experiment with K-562 leukemia it was 1.5 µM; in the experiment on M14 melanoma, 1.2 µM. Further, the TGI amounted to 1.66 µM in the experiment on MDA-MB-231 breast, 1.75 µM in the experiment on MDA-MB-435, 1.16 µM in the experiment with U251 CNS and 0.631 µM in the experiment with UACC-62 melanoma.

Turning to `C#CC1(OC(C)=O)CCC2C3CC=C4C=C(OC(C)=O)CCC4(C)C3CCC21C` (stereo not given), the TGI in the experiment with 786-0 renal is 85.5 µM; in the experiment with A498 renal, more than 100 µM; with A549 NSCLC, more than 100 µM; in the experiment with BT-549 breast, 83.1 µM; in the experiment with K-562 leukemia it was 83.2 µM; with M14 melanoma, 70.3 µM. In addition, the TGI in the experiment with MDA-MB-231 breast was determined as 58.3 µM; with MDA-MB-435 it was 45.2 µM; in the experiment on U251 CNS, 38.9 µM; with UACC-62 melanoma, 44.5 µM.

Regarding `CCC(=O)Nc1ccccc1C#C/C=C\C#Cc1ccccc1SC`, the GI50 is 33.6 µM with 786-0 renal; 15.1 µM in the experiment on A498 renal; 3.35 µM with A549 NSCLC; 14.7 µM with BT-549 breast; 6.37 µM in the experiment on K-562 leukemia; 12 µM in the experiment on M14 melanoma. The GI50 is 7.92 µM in the experiment on MDA-MB-231 breast, 1.92 µM in the experiment on MDA-MB-435, 6.43 µM in the experiment with U251 CNS and 4.04 µM in the experiment with UACC-62 melanoma. Also, the TGI in the experiment on 786-0 renal, in the experiment with A498 renal, in the experiment on A549 NSCLC, in the experiment with BT-549 breast, with K-562 leukemia and in the experiment on M14 melanoma was more than 100 µM each time. For the same compound, the TGI is more than 100 µM in the experiment on MDA-MB-231 breast, 6.17 µM in the experiment on MDA-MB-435, more than 100 µM in the experiment on U251 CNS and more than 100 µM in the experiment with UACC-62 melanoma.
